# Laboratory results taken from ChEMBL document CHEMBL1155656, “Thirteen novel cycloartane-type triterpenes from Combretum quadrangulare” (2000).
# Experiment: Cytotoxicity against mouse 26-L5 cells
# Format: functional
# Conditions: read-out: ED50 (the source's name)
row,SMILES,EC50
1,C=C(C)[C@H](O)CC[C@@H](C(=O)O)[C@H]1CC[C@@]2(C)[C@@H]3CC[C@H]4[C@](C)(C(=O)OC)[C@@H](O)C[C@H](O)[C@@]45C[C@@]35CC[C@]12C,> 100 µg/mL
2,C=C(CC[C@@H](C)[C@H]1CC[C@@]2(C)[C@@H]3[C@@H](O)C[C@H]4[C@](C)(C(=O)O)[C@@H](O)C[C@H](O)[C@@]45C[C@@]35CC[C@]12C)C(C)C,37.3 µg/mL
3,C[C@H](CC[C@H](O)C(C)(C)O)[C@H]1CC[C@@]2(C)[C@@H]3CC[C@H]4[C@](C)(C(=O)O)[C@@H](O)C[C@H](O)[C@@]45C[C@@]35CC[C@]12C,> 100 µg/mL
4,C=C(C)[C@@H](O)CC[C@@H](CO)[C@H]1CC[C@@]2(C)[C@@H]3CC[C@H]4[C@](C)(C(=O)OC)[C@@H](O)C[C@H](O)[C@@]45C[C@@]35CC[C@]12C [METHYL QUADRANGULARATE],29.4 µg/mL
5,C[C@H](CCC(=O)O)[C@H]1CC[C@@]2(C)[C@@H]3CC[C@H]4[C@](C)(C(=O)O)[C@@H](O)C[C@H](O)[C@@]45C[C@@]35CC[C@]12C [NORQUADRANGULARIC ACID A],> 100 µg/mL
6,COC(=O)[C@]1(C)[C@@H](O)C[C@H](O)[C@]23C[C@]24CC[C@]2(C)[C@@H]([C@@H](C/C=C/C(C)(C)OO)C(=O)O)CC[C@@]2(C)[C@@H]4CC[C@@H]13 [QUADRANGULARIC ACID F],> 100 µg/mL
7,C=C(C)[C@@H](O)CC[C@@H](C(=O)O)[C@H]1CC[C@@]2(C)[C@@H]3CC[C@H]4[C@](C)(C(=O)OC)[C@@H](O)C[C@H](O)[C@@]45C[C@@]35CC[C@]12C [QUADRANGULARIC ACID G],> 100 µg/mL
8,C=C(C)C(=O)CC[C@@H](C(=O)O)[C@H]1CC[C@@]2(C)[C@@H]3CC[C@H]4[C@](C)(C(=O)O)[C@@H](O)C[C@H](O)[C@@]45C[C@@]35CC[C@]12C [QUADRANGULARIC ACID H],> 100 µg/mL
9,COC(C)(C)/C=C/C[C@@H](C)[C@H]1CC[C@@]2(C)[C@@H]3CC[C@H]4[C@](C)(C(=O)O)[C@@H](O)C[C@H](O)[C@@]45C[C@@]35CC[C@]12C [QUADRANGULARIC ACID J],86.1 µg/mL
10,C[C@H](C/C=C\C(C)(C)O)[C@H]1CC[C@@]2(C)[C@@H]3CC[C@H]4[C@](C)(C(=O)O)[C@@H](O)C[C@H](O)[C@@]45C[C@@]35CC[C@]12C [QUADRANGULARIC ACID K],82.6 µg/mL
11,C[C@H](CC[C@@H](O)C(C)(C)O)[C@H]1CC[C@@]2(C)[C@@H]3CC[C@H]4[C@](C)(C(=O)O)[C@@H](O)C[C@H](O)[C@@]45C[C@@]35CC[C@]12C [QUADRANGULARIC ACID L],> 100 µg/mL
